Legend:
[1] = plasma trough level of itraconazole required for clinical benefit in humans with cancer; type: in vivo, human
Method: In particular, the minimum plasma trough level after 4 weeks of therapy required to have a clinically significant effect was at least 1000 ng/ml. Achieving these levels of itraconazole is enhanced by the use of formulations with greater bioavailability such as SUBA-CAP™ formulation. […] These side effects associated with these high doses of itraconazole can be effectively managed by giving a selective mineralocorticoid antagonist, such as eplerenone. Accordingly, in some embodiments, the method further comprises administering eplerenone or other mineralocorticoid inhibitor.

[2] = tested on: HhP; conditions: major metabolite of itraconazole; cited from earlier work

| concentration at 4 weeks ([1]; human, plasma, after 4 weeks of therapy, humans with cancer, read-out: minimum plasma trough level required to have a clinically significant effect) | Compound | side-effects peculiar to high doses ([1]; high doses of itraconazole) | potency as a HhP inhibitor relative to itraconazole [2] |
| --- | --- | --- | --- |
| ≥ 1000 ng/mL | CCC(C)n1ncn(-c2ccc(N3CCN(c4ccc(OCC5COC(Cn6cncn6)(c6ccc(Cl)cc6Cl)O5)cc4)CC3)cc2)c1=O (stereo not drawn) [itraconazole] | hypertension, peripheral edema, and hypokalemia |  |
|  | hydroxy-itraconazole |  | not equipotent |

Source: patent US10363252B2, “Treatment of prostate cancer using hedgehog pathway inhibitors” (HEDGEPATH PHARMACEUTICALS, INC., priority 2013, dated 2019)
